*1 amine or outer side, *2 acyl side, *3 side chain or, on linkers, in order; H or OH if unused. Where a SMILES comes first, the peptide text is derived from it. Bridges are numbered along the chain shown (N, C = ends). [ ]: non-standard residue; d: D form. Adda = CO[C@@H](Cc1ccccc1)[C@@H](C)/C=C(C)/C=C/[C@H](N[*:1])[C@H](C)C(=O)[*:2]; dAsp(3S-Me) = C[C@H](C(=O)[*:3])[C@@H](N[*:1])C(=O)[*:2]; d(γGlu) = O=C(O)[C@@H](CCC(=O)[*:2])N[*:1]; NMeDha = C=C(NC)C(=O)O
Experiments:
[1] = biological target: T1, Serine/threonine-protein phosphatase 2A catalytic subunit alpha isoform (Bos taurus, UniProt P67774); experiment: Inhibitory concentration against protein phosphatase 2A (PP2A) using phosphorylase-a assay; set-up: species or system Oryctolagus cuniculus
T1 sequence (P67774 whole entry, canonical isoform): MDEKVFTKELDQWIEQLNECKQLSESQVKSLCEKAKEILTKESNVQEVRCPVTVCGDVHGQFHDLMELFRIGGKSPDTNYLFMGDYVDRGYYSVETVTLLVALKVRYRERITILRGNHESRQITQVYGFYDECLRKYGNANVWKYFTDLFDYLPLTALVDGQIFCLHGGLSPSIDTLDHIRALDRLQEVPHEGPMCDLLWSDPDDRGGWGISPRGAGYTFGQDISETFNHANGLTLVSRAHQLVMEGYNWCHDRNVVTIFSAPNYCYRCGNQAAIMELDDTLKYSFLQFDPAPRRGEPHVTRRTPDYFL

[2] = biological target: T1, Serine/threonine-protein phosphatase 2A catalytic subunit alpha isoform; experiment: Inhibitory concentration against protein phosphatase 2A (PP2A) using pNPP assay; set-up: species or system Oryctolagus cuniculus
Oryctolagus cuniculus = species on record: Oryctolagus cuniculus; experiment: Ratio of inhibition of PP1 to that of inhibition of PP2A using phosphorylase-a assay

## C=C1C(=O)N[C@H](C)C(=O)N[C@@H](CC(C)C)C(=O)N[C@@H](C(=O)O)[C@H](C)C(=O)N[C@@H](C)C(=O)N[C@@H](/C=C/C(C)=C/[C@H](C)[C@H](Cc2ccccc2)OC)[C@H](C)C(=O)N[C@@H](C(=O)O)CCC(=O)N1C (A[Adda][d(γGlu)][NMeDha][dA]L[dAsp(3S-Me)]-OH; lactam N-7)
[1]
  IC50: 0.0003 µM
[2]
  IC50: 0.003 µM
Oryctolagus cuniculus
  Ratio: 1

## CO[C@@H](Cc1ccccc1)[C@@H](C)/C=C(C)/C=C/[C@H](NC(C)=O)[C@H](C)C(=O)N1C[C@@H](C(=O)O)C[C@@H]1C(=O)O
[2]
  IC50: > 100 µM

## CO[C@@H](Cc1ccccc1)[C@@H](C)/C=C(C)/C=C/[C@H](NC(C)=O)[C@H](C)C(=O)N1[C@@H](C(=O)O)CC[C@H]1C(=O)O
[2]
  IC50: 10 µM
Oryctolagus cuniculus
  Ratio: > 5

## CO[C@@H](Cc1ccccc1)[C@@H](C)/C=C(C)/C=C/[C@H](NC(C)=O)[C@H](C)C(=O)N1CCCC1
[2]
  IC50: > 100 µM

## CC(=O)N[C@@H](/C=C/C(C)=C/c1ccc(-c2ccccc2)cc1)[C@H](C)C(=O)N[C@H](C)C(=O)O
[2]
  IC50: > 100 µM

## CO[C@@H](Cc1ccccc1)[C@@H](C)/C=C(C)/C=C/[C@H](NC(C)=O)[C@H](C)C(=O)N[C@H](C)C(=O)O
[1]
  IC50: 0.16 µM
[2]
  IC50: 7 µM
Oryctolagus cuniculus
  Ratio: 6

## CO[C@@H](Cc1ccccc1)[C@@H](C)/C=C(C)/C=C/[C@H](NC(C)=O)[C@H](C)C(=O)N1C[C@H](C(=O)O)C[C@@H]1C(=O)O
[2]
  IC50: > 100 µM

## CC(=O)N[C@@H](/C=C/C(C)=C/CCCc1ccccc1)[C@H](C)C(=O)N[C@H](C)C(=O)O
[2]
  IC50: > 100 µM

## CO[C@@H](Cc1ccccc1)[C@@H](C)/C=C(C)/C=C/[C@H](NC(C)=O)[C@H](C)C(=O)N[C@@H](C)C(=O)O
[1]
  IC50: 7.8 µM
Oryctolagus cuniculus
  Ratio: 1.22

## COC(=O)[C@@H]1CCCN1C(=O)[C@@H](C)[C@H](/C=C/C(C)=C/[C@H](C)[C@H](Cc1ccccc1)OC)NC(C)=O
[2]
  IC50: > 100 µM

## CO[C@@H](Cc1ccccc1)[C@@H](C)/C=C(C)/C=C/[C@H](NC(C)=O)[C@H](C)C(=O)N1CCC[C@H]1C(=O)O
[2]
  IC50: > 100 µM

## CO[C@@H](Cc1ccccc1)[C@@H](C)/C=C(C)/C=C/[C@H](NC(C)=O)[C@H](C)C(=O)N(CC(=O)O)CC(=O)O
[2]
  IC50: > 100 µM

## CO[C@@H](Cc1ccccc1)[C@@H](C)/C=C(C)/C=C/[C@H](NC(C)=O)[C@H](C)C(=O)NCC(=O)O
[1]
  IC50: 0.5 µM
Oryctolagus cuniculus
  Ratio: 1.11

## CC(=O)N[C@@H](/C=C/C(C)=C/c1ccccc1Cc1ccccc1)[C@H](C)C(=O)N[C@H](C)C(=O)O
[2]
  IC50: > 100 µM

## CO[C@@H](Cc1ccccc1)[C@@H](C)/C=C(C)/C=C/[C@H](NC(C)=O)[C@H](C)C(=O)N1[C@H](C(=O)O)CC[C@H]1C(=O)O
[2]
  IC50: > 39 µM
Oryctolagus cuniculus
  Ratio: > 1.3

## CO[C@@H](Cc1ccccc1)[C@@H](C)/C=C(C)/C=C/[C@H](NC(C)=O)[C@H](C)C(=O)N1C[C@H](C(=O)O)C[C@H]1C(=O)O
[2]
  IC50: > 100 µM

## COC(=O)[C@H]1CCCN1C(=O)[C@@H](C)[C@H](/C=C/C(C)=C/[C@H](C)[C@H](Cc1ccccc1)OC)NC(C)=O
[2]
  IC50: > 100 µM

## CO[C@@H](Cc1ccccc1)[C@@H](C)/C=C(C)/C=C/[C@H](NC(C)=O)[C@H](C)C(=O)N1CCC[C@@H]1C(=O)O
[2]
  IC50: > 25 µM
Oryctolagus cuniculus
  Ratio: 2

## CO[C@@H](Cc1ccccc1)[C@@H](C)/C=C(C)/C=C/[C@H](NC(C)=O)[C@H](C)C(=O)N1C[C@H](O[Si](C(C)C)(C(C)C)C(C)C)C[C@@H]1C(=O)O
[2]
  IC50: > 63 µM
Oryctolagus cuniculus
  Ratio: > 2
